For data set [1], the system named is Hela cells. The data set is described as follows: Cytotoxicity assay (MTS reduction). Type of data set: cell-based. To be noted: concentrations up to 100 μM, 18 h, MTS reagent; data not shown. The method, then: Selected compounds were also tested for their ability to inhibit growth of mammalian cells so as to ascertain levels of cytotoxicity to the mammalian host, via an assay measuring the biological reduction of the inner salt of (3-(4,5-dimethylthiazol-2-yl)-5-(3-carboxymethoxyphenyl)-2-(4-sulfophenyl)-2H-tetrazolium (MTS reagent). Assays were performed in 96-well microtiter plates. Briefly, compounds at 100, 50, 25, and 12.5 μM concentrations were incubated with 2×10^4 Hela cells per well in Dulbecco's Modified Eagle Medium (Invitrogen Corporation) containing 1% Bovine Growth Serum (HyClone) for 18 h at 37° C. under 5% CO2.
(Tetrazolium assays rely on reduction of a dye to a coloured formazan, in cell work by metabolically active cells.)

The nature of data set [2]: Regeneration of drug from bone powder-bound prodrug. In kind it is in vitro ADME. To be noted: PBS vs serum. The method, then:
Amounts of drug “regenerated” from the phosphonated parent prodrug were measured as follows. Washed bone powder-bound prodrugs from the above section were resuspended in 400 μL PBS or in 400 μL 50% (v/v in PBS) human or rat serum. […] Methanol (5× volume relative to supernatant) was added to each supernatant and the mixture was vortexed on a floor model vortex for 15 min to extract freed fluoroquinolone. The mixture was then centrifuged at 10 000 rpm for 15 min to pellet the insoluble material. The supernatant containing the extracted fluoroquinolone was recovered and evaporated to dryness in a speed vac. The dried pellets were resuspended in PBS and the amount of fluoroquinolone was determined by fluorescence measurements as described above. The percentage of drug regenerated was deduced from the difference between amount of bound prodrug and the amount of regenerated drug. The identity of regenerated drug was deduced by MIC determination; MICs of regenerated material matched those of parent drugs but not those of prodrugs.

Data set [3] is described as follows: Bone powder binding, fluorometric detection. To be noted: for Binding to bone (%) Fluorescence: 1 mg/ml compound, bone meal powder 10 mg/ml in PBS, 37° C., 1 h; for binding to osseous matter, in words: bisphosphonates bearing three hydroxy groups. The method, then:
The ability of the example molecules to bind to bone powder was established in two parallel fashions, using either LC/MS or fluorometric detection. For LC/MS detection, a stock solution (5 mM) of the compound to be tested was added to 0.1M Tris-HCl buffer pH 7, 0.15M NaCl to reach a final concentration of 100 μM. Triplicate samples (1 mL) of the compound solutions were intensively shaken for 10 min with or without 25 mg of fresh or 20 mg of vacuum dried ground rat tibia bone. The samples were then centrifuged for 15 min at 10 000 g. The presence of unbound compound was measured by injection of 30 μL of each of the supernatants into an Agilent 1100™ LC/UV system. For fluorometric detection, an individual compound was dissolved in PBS or water (compound 52) and resuspended at a concentration of 1 mg/ml in a slurry of bone meal powder (Now Foods, Bloomingdale, Ill., USA) in PBS at 10 mg/ml. The suspension of drug/prodrug in bone meal powder was incubated at 37° C. for 1 h to allow for binding, and centrifuged at 13 000 rpm for 2 min, before recovering the supernatant. The bone meal powder pellet was then washed three times with 1 ml of PBS. All supernatants were saved and assessed for fluoroquinolone content by fluorescence measurements at excitation/emission wavelengths of 280/465 nm. The amount of fluoroquinolone was determined from standard curves generated for each experiment. Amount of drug/prodrug bound to bone powder was deduced from the difference between the input amount (typically 1 mg) and the amount recovered in the supernatants after binding. In all binding experiments, >99% of input drug was recovered in the supernatant for the parent drugs.

Data set [4] has as its system S. aureus ATCC 13709. Nature of the data set: Prophylactic model of bone infection in rats. In kind it is in vivo, rat. As to conditions: for Measured bacterial titer (Log CFU/g of bone) Test compound: 2 days prior to infection; for prophylactic effect in rat model of bone infection, in words: Table 4 and FIGS. 6-8, doses as in Table 4. The method, then: To determine the activity in vivo of bisphosphonated prodrugs of fluoroquinolones, compounds 52 and 107, derivatives of parent compounds moxifloxacin 3 (for 52), and compounds 39, 44, 49, 54, 121, 129, 141, 145, 149, derivatives of parent compound gatifloxacin 15, were used in a prophylactic model for infection. Specifically, S. aureus ATCC 13709 cells were grown overnight at 37° C. in brain heart infusion broth (BHIB). Cells were subcultured into fresh BHIB and incubated for 4 to 5 h at 37° C. The cells were washed twice with phosphate-buffered saline (PBS) and resuspended in BHIB supplemented with 10% (vol./vol.) fetal bovine serum at a density of approximately 10^10 colony forming units (CFU)/ml (based upon turbidimetry). The suspension was aliquoted and a portion was used to check the CFU count. The culture was stored frozen (−80° C.) and was used without subculture. For use as an inoculum the culture was thawed, diluted in PBS and kept in an ice bath until it was used.
Animals were infected as described by O'Reilly et al. (Antimicrobial Agents and Chemotherapy (1992), 36(12): 2693-97) to generate the bone infection. Female CD rats (age, 57 to 70 days; n=5/group; Charles River, St-Constant, Canada) were anaesthetized by isofluorane before and during the surgery. Following complete induction of anesthesia, the rat was placed ventral side up and hair was shaved from the surgical site. The skin over the leg was cleaned and disinfected (proviodine-ethanol 70%). A longitudinal incision below the knee joint was made in the sagital plane. The incision was made over the bone below the “knee joint” (tibia head or condyle) but not completely extending to the ankle. A high speed drill fitted with a 2 mm bulb bit was used to drill a hole into the medullar cavity of the tibia. Rats were injected intra-tibially with 0.05 ml 5% sodium morrhuate (sclerosing agent) and then with 0.05 ml of S. aureus suspension (ca. 5×10^5 CFU/rat). The hole was sealed by applying a small amount of dry dental cement which immediately absorbs fluids and adheres to the site. The wound was closed using 3 metal skin clips. Moxifloxacin 3 (as a positive control) was injected once at 10 mg/kg intravenously 1 h postinfection in saline, while the fluoroquinolone prodrugs (prepared in 0.9% saline) were injected as a single intravenous bolus dose at different time points prior to the infection. For comparison, the parent drug (moxifloxacin 3 or gatifloxacin 15) was also injected intravenously once at a molar equivalent dose at the same time point prior the infection.
Infected rats were sacrificed by CO2 asphyxiation 24 h postinfection to monitor the bacterial CFU count. Infected tibiae were removed, dissected free of soft tissue, and weighed. The bones were ground using a metal ball mill, resuspended in 5 ml 0.9% NaCl, serially diluted and processed for quantitative cultures. For compounds 39, 44, 49, 54, 141, 145, 149, 1 ml of the 0.9% NaCl solution was added to 50 mg of charcoal before serial dilutions. Treatment efficacies were measured in terms of Log viable bacteria (Log CFU per gram of bone). The results obtained for each group of rats were evaluated by calculating the mean Log CFU and standard deviation. The limit of detection is 2 Log CFU/g of bone. Statistical comparisons of viable bacterial counts for the different treated and untreated groups were performed with Dunnett's multiple-comparison test. Differences were considered significant when the P value was <0.05 when comparing treated infected animals to the untreated infected ones.

Each structure is given as a SMILES string.

Regarding `CCOP(=O)(OCC)C(NC(=O)COC(=O)c1cn(C2CC2)c2c(OC)c(N3CCN(C(=O)OC(C)(C)C)C(C)C3)c(F)cc2c1=O)P(=O)(OCC)OCC` (centres unmarked) [Compound 53, (1,1-Bis(diethylphosphono)methylcarbamoyl)methyl 7-(4-(tert-butoxycarbonyl)-3-methylpiperazin-1-yl)-1-cyclopropyl-6-fluoro-1,4-dihydro-8-methoxy-4-oxoquinoline-3-carboxylate], in data set [1], the cytotoxicity entry was “no signs of any cytotoxicity”.
As to `COP(=O)(OC)C(CN1CCN(c2cc3c(cc2F)c(=O)c(C(=O)O)cn3C2CC2)CC1)P(=O)(OC)OC` [Compound 7, 7-(4-(2,2-bis(dimethylphosphono)ethyl)piperazin-1-yl)-1-cyclopropyl-6-fluoro-1,4-dihydro-4-oxoquinoline-3-carboxylic acid], in data set [1], the cytotoxicity result is reported as “no signs of any cytotoxicity”.
In the case of `COc1c(N2CCNC(C)C2)c(F)cc2c(=O)c(C(=O)OCC(=O)N(C)C(P(=O)(O)O)P(=O)(O)O)cn(C3CC3)c12` (centres unmarked) [Compound 82, (N-Methyl-1,1-Bisphosphonomethylcarbamoyl)methyl 7-(3-methylpiperazin-1-yl)-1-cyclopropyl-6-fluoro-1,4-dihydro-8-methoxy-4-oxoquinoline-3-carboxylate], the “effect of the medium (presence or absence of serum) on regeneration rate” value (“effect of the medium” for short) in data set [2] is “fairly similar rates”. For the same compound, in data set [3], the “Binding to bone (%) Fluorescence” value is 90.4%.
As to `COc1c(N2C[C@@H]3CCCN(CC(P(=O)(OC)OC)P(=O)(OC)OC)[C@@H]3C2)c(F)cc2c(=O)c(C(=O)O)cn(C3CC3)c12` [Compound 4, 7-((4aS,7aS)-1-(2,2-bis(dimethylphosphono)ethyl)-octahydropyrrolo[3,4-b]pyridin-6-yl)-1-cyclopropyl-6-fluoro-1,4-dihydro-8-methoxy-4-oxoquinoline-3-carboxylic acid], the cytotoxicity entry in data set [1] is reported as “no signs of any cytotoxicity”.
`COc1c(N2C[C@@H]3CCCN[C@@H]3C2)c(F)cc2c(=O)c(C(=O)Oc3ccc(C(P(=O)(O)O)P(=O)(O)O)cc3)cn(C3CC3)c12` [Compound 85, 4-(Bisphosphonomethyl)phenyl 1-cyclopropyl-6-fluoro-1,4-dihydro-7-((4aS,7aS)-octahydropyrrolo[3,4-b]pyridin-6-yl)-8-methoxy-4-oxoquinoline-3-carboxylate]: in data set [2], the “effect of the medium” value is “fairly similar rates”. Besides, the “Binding to bone (%) Fluorescence” value in data set [3] is 98.9%.
For the compound `COc1c(N2CCNC(C)C2)c(F)cc2c(=O)c(C(=O)Oc3ccc(C(P(=O)(O)O)P(=O)(O)O)cc3)cn(C3CC3)c12` (centres unmarked) [Compound 87, 4-(Bisphosphonomethyl)phenyl 7-(3-methylpiperazin-1-yl)-1-cyclopropyl-6-fluoro-1,4-dihydro-8-methoxy-4-oxoquinoline-3-carboxylate], the “effect of the medium” value in data set [2] was “fairly similar rates”. Further, the “Binding to bone (%) Fluorescence” value in data set [3] is given as 79.2%.
As to `CCCC(=O)Oc1ccc(P(=O)(O)CP(=O)(O)O)cc1C(C)(C)CC(=O)N1CCN(c2c(F)cc3c(=O)c(C(=O)O)cn(C4CC4)c3c2OC)CC1C` (centres unmarked) [Compound 149, 7-(4-(3-(2-butyroxy-5-((phosphonomethyl)phosphonoyl)phenyl)-3-methylbutanoyl)-3-methylpiperazin-1-yl)-1-cyclopropyl-6-fluoro-1,4-dihydro-8-methoxy-4-oxoquinoline-3-carboxylic acid], in data set [3], the “Binding to bone (%) Fluorescence” value was found to be 89.6% and the “binding to osseous matter, in words” value was “less effectively bound”. Further, in data set [4] (15 mg/kg IV), the “Measured bacterial titer (Log CFU/g of bone) Test compound” value was 5.16 ± 0.72 Log CFU/g of bone. Also, in data set [4], the “prophylactic effect in rat model of bone infection, in words” value is recorded as “unable to produce a positive result in vivo”.
For the compound `COc1c(N2CCN(Cc3oc(=O)oc3-c3ccc(P(=O)(O)CP(=O)(O)O)cc3)C(C)C2)c(F)cc2c(=O)c(C(=O)O)cn(C3CC3)c12` (centres unmarked) [Compound 129, 1-Cyclopropyl-6-fluoro-1,4-dihydro-8-methoxy-7-(3-methyl-4-((2-oxo-5-(4-(phosphonomethylphosphinoyl)phenyl)-1,3-dioxol-4-yl)methyl)piperazin-1-yl)-4-oxoquinoline-3-carboxylic acid], in data set [3], the “Binding to bone (%) Fluorescence” value came out at 63.7% and the “binding to osseous matter, in words” value is “less effectively bound”. In addition, the “Measured bacterial titer (Log CFU/g of bone) Test compound” value in data set [4] (10.75 mg/kg IV) is reported as 6.14 ± 1.05 Log CFU/g of bone. Further, in data set [4], the “prophylactic effect in rat model of bone infection, in words” value is “unable to produce a positive result in vivo”.
Take `COC(=O)c1cn(C2CC2)c2c(OC)c(N3C[C@@H]4CCCN[C@@H]4C3)c(F)cc2c1=O` [Compound 154, Methyl 1-cyclopropyl-6-fluoro-1,4-dihydro-7-((4aS,7aS)-octahydropyrrolo[3,4-b]pyridin-6-yl)-8-methoxy-4-oxoquinoline-3-carboxylate]: the cytotoxicity entry in data set [1] is given as “no signs of any cytotoxicity”.
Consider `COc1c(N2C[C@@H]3CCCN[C@@H]3C2)c(F)cc2c(=O)c(C(=O)OCC(=O)Nc3ccc(C(P(=O)(O)O)P(=O)(O)O)cc3)cn(C3CC3)c12` [Compound 73, (4-Bisphosphonomethylphenylcarbamoyl)methyl 1-cyclopropyl-6-fluoro-1,4-dihydro-7-((4aS,7aS)-octahydropyrrolo[3,4-b]pyridin-6-yl)-8-methoxy-4-oxoquinoline-3-carboxylate], for which the “effect of the medium” value in data set [2] was “fairly similar rates”. Besides, in data set [3], the “Binding to bone (%) Fluorescence” value is on record as 99.0%.

These data come from patent US20080287396A1, “Phosphonated Fluoroquinolones, Antibacterial Analogs Thereof, and Methods for the Prevention and Treatment of Bone and Joint Infections” (TARGANTA THERAPEUTICA INC., priority 2005, published 2008).
